Experimental data as given in paper PMC9490041, “Determinants of affinity, specificity, and phase separation in a supramodule from Post-synaptic density protein 95” (iScience, 2022).
Where two headings read alike, the source gives them in different places. Ends that are not written are not given here.

What was measured:
Assay in all cases: FP displacement (competition) of FITC-15 AA CRIPT by library peptide, IC50 and Ki
PSG G335A (PSD-95) = settings: for IC50: read-out: IC50 (µM), PSG G335A; for Ki: read-out: Ki (µM), PSG G335A
PSG (PSD-95) = settings: for IC50: read-out: IC50 (µM), PSG; for Ki: read-out: Ki (µM), PSG
PSG G322A (PSD-95) = settings: for IC50: read-out: IC50 (µM), PSG G322A; for Ki: read-out: Ki (µM), PSG G322A
PSG G322A G335A (PSD-95) = settings: for IC50: read-out: IC50 (µM), PSG G322A G335A; for Ki: read-out: Ki (µM), PSG G322A G335A
[1] = FP displacement of FITC-15 AA CRIPT probe by acetylated PSD library peptide
[2] = FP displacement of FITC-15 AA CRIPT probe by acetylated PSD library peptide (P-13 to P0 plus extra N-terminal Y)
[3] = FP displacement of FITC-15 AA CRIPT probe by PSD library peptide, protein PSG G335A
[4] = FP displacement of FITC-15 AA CRIPT probe by PSD library peptide, protein PSG (wild type)
[5] = FP displacement of FITC-15 AA CRIPT probe by PSD library peptide, protein PSG G322A
[6] = FP displacement of FITC-15 AA CRIPT probe by PSD library peptide, protein PSG G322A G335A

IC50 (PSG G335A (PSD-95); [1]) [µM]	Ki (PSG G335A (PSD-95); [1]) [µM]	IC50 (PSG (PSD-95); [1]) [µM]	Ki (PSG (PSD-95); [1]) [µM]	IC50 (PSG G322A (PSD-95); [1]) [µM]	Ki (PSG G322A (PSD-95); [1]) [µM]	IC50 (PSG G322A G335A (PSD-95); [2]) [µM]	Ki (PSG G322A G335A (PSD-95); [1]) [µM]	IC50 (PSG G335A (PSD-95); [3]) [µM]	Ki (PSG G335A (PSD-95); [3]) [µM]	IC50 (PSG (PSD-95); [4]) [µM]	Ki (PSG (PSD-95); [4]) [µM]	IC50 (PSG G322A (PSD-95); [5]) [µM]	Ki (PSG G322A (PSD-95); [5]) [µM]	IC50 (PSG G322A G335A (PSD-95); [6]) [µM]	Ki (PSG G322A G335A (PSD-95); [6]) [µM]	Molecule
1600	569	1160	493	1450	629	1630	564									CC[C@H](C)[C@H](NC(=O)[C@@H](NC(=O)[C@H](CCCCN)NC(=O)[C@H](CCCCN)NC(=O)CNC(=O)[C@H](CC(C)C)NC(=O)[C@H](CCCCN)NC(=O)[C@H](C)NC(=O)[C@H](CCSC)NC(=O)[C@H](CCCNC(=N)N)NC(=O)[C@H](CCSC)NC(=O)[C@H](CCCNC(=N)N)NC(=O)[C@H](CC(C)C)NC(=O)[C@H](C)NC(=O)[C@H](Cc1ccc(O)cc1)NC(C)=O)C(C)C)C(=O)O [PALMD]
1310	466	1470	628	1600	692	1590	550									CC[C@H](C)[C@H](NC(=O)[C@H](Cc1ccc(O)cc1)NC(=O)[C@H](CO)NC(=O)CNC(=O)[C@H](CO)NC(=O)[C@H](CCC(N)=O)NC(=O)[C@H](Cc1ccc(O)cc1)NC(C)=O)C(=O)N[C@@H](Cc1c[nH]c2ccccc12)C(=O)N[C@H](C(=O)N1CCC[C@H]1C(=O)N[C@@H](C)C(=O)N[C@@H](CCCCN)C(=O)N[C@@H](CCC(=O)O)C(=O)N[C@@H](CCCCN)C(=O)N[C@@H](CC(C)C)C(=O)O)C(C)C [DLG1]
516	184	2080	888	2260	982	727	252									CSCC[C@H](NC(=O)[C@H](CO)NC(=O)[C@H](Cc1ccc(O)cc1)NC(=O)[C@H](CC(C)C)NC(=O)[C@H](Cc1ccc(O)cc1)NC(=O)[C@H](Cc1ccc(O)cc1)NC(=O)[C@H](Cc1ccccc1)NC(=O)[C@H](Cc1ccc(O)cc1)NC(C)=O)C(=O)N[C@H](C(=O)N[C@@H](Cc1ccc(O)cc1)C(=O)N[C@H](C(=O)N[C@@H](CC(C)C)C(=O)N[C@H](C(=O)N[C@@H](CO)C(=O)N[C@@H](Cc1ccccc1)C(=O)O)C(C)C)[C@@H](C)O)C(C)C [CNIH2]
2060	736	2060	879			973	337									Ac-YDKPLSKKHAHSVNF [PDLI5]
								603	215	1450	765	792	343	435	151	CC(=O)N[C@@H](Cc1ccc(O)cc1)C(=O)N[C@@H](CO)C(=O)N[C@@H](CO)C(=O)N[C@H](C(=O)N[C@@H](CO)C(=O)N1CCC[C@H]1C(=O)N[C@@H](CCC(N)=O)C(=O)N[C@@H](CO)C(=O)N[C@H](C(=O)N[C@@H](CC(=O)O)C(=O)N[C@@H](CCCCN)C(=O)N[C@@H](CO)C(=O)N[C@@H](CO)C(=O)N[C@H](C(=O)N[C@H](C(=O)O)C(C)C)[C@@H](C)O)[C@@H](C)O)[C@@H](C)O [SRGP2]
1430	510	1590	679	1550	671	997	345									Ac-YPPSSPTLSVSSTSL [KLH17]
										1220	518	2000	867	1170	405	CC(=O)N[C@@H](Cc1ccc(O)cc1)C(=O)N[C@@H](Cc1c[nH]cn1)C(=O)N[C@@H](Cc1c[nH]cn1)C(=O)N[C@H](C(=O)N[C@@H](CO)C(=O)N[C@@H](Cc1ccc(O)cc1)C(=O)N[C@H](C(=O)N[C@@H](C)C(=O)N[C@@H](CO)C(=O)N[C@@H](CCCCN)C(=O)N[C@H](C(=O)N[C@@H](CCC(=O)O)C(=O)N[C@H](C(=O)N[C@H](C(=O)N[C@H](C(=O)O)C(C)C)[C@@H](C)O)C(C)C)[C@@H](C)O)[C@@H](C)O)[C@@H](C)O [SHSA6]
2540	907	1410	600	2060	894	2450	847									CSCC[C@H](NC(=O)[C@H](CCC(N)=O)NC(=O)[C@H](CC(=O)O)NC(=O)[C@H](Cc1ccc(O)cc1)NC(=O)[C@H](CC(=O)O)NC(=O)[C@@H]1CCCN1C(=O)[C@H](CO)NC(=O)[C@H](CCCCN)NC(=O)[C@H](CC(C)C)NC(=O)[C@H](Cc1ccc(O)cc1)NC(C)=O)C(=O)N[C@@H](CO)C(=O)N[C@@H](CO)C(=O)N[C@@H](CO)C(=O)N1CCC[C@H]1C(=O)N[C@@H](CS)C(=O)O [CCG5]
663	236	1440	613			733	254									CC[C@H](C)[C@H](NC(=O)[C@H](CC(C)C)NC(=O)[C@H](C)NC(=O)[C@@H](NC(=O)[C@H](C)NC(=O)[C@H](Cc1ccc(O)cc1)NC(C)=O)C(C)C)C(=O)N[C@@H](C)C(=O)N[C@@H](Cc1ccc(O)cc1)C(=O)N[C@@H](CC(C)C)C(=O)N[C@@H](CO)C(=O)N[C@@H](CCCCN)C(=O)N[C@@H](CC(N)=O)C(=O)N[C@@H](CC(N)=O)C(=O)N[C@@H](Cc1c[nH]cn1)C(=O)N[C@@H](CC(C)C)C(=O)O [SYNG1]
		1390	592													Ac-YSRQHSKLLDFDDVL [NSMF]
								1360	485			1560	679	1280		Ac-YEKAASREEPIEWEF [CUX1]
1020	365			1510	654	2830	979									Ac-YQEQNKVLWIPASPL [DLG5]
673	240			660	286	570	197									CC(=O)N[C@@H](Cc1ccc(O)cc1)C(=O)N[C@@H](CC(C)C)C(=O)N[C@@H](Cc1c[nH]cn1)C(=O)NCC(=O)N[C@@H](Cc1c[nH]cn1)C(=O)N[C@@H](CCCNC(=N)N)C(=O)N[C@@H](Cc1ccc(O)cc1)C(=O)N[C@@H](CO)C(=O)N[C@@H](CO)C(=O)NCC(=O)N[C@@H](CO)C(=O)N[C@@H](CCCNC(=N)N)C(=O)N[C@@H](CO)C(=O)N[C@@H](CC(C)C)C(=O)N[C@H](C(=O)O)C(C)C [IQEC3]
1510	538			651	282	881	305									Ac-YDVVAVYPNAKVELV [PDLI4]
2010	718			1460	634	2020	698									CC[C@H](C)[C@H](NC(=O)[C@H](CO)NC(=O)[C@@H](NC(=O)[C@@H](NC(=O)[C@@H]1CCCN1C(=O)[C@H](CC(C)C)NC(=O)[C@H](C)NC(=O)[C@@H]1CCCN1C(=O)[C@H](Cc1ccc(O)cc1)NC(C)=O)[C@@H](C)O)C(C)C)C(=O)N[C@@H](CO)C(=O)N[C@@H](CO)C(=O)N[C@@H](CO)C(=O)N[C@@H](C)C(=O)N[C@@H](CCC(=O)O)C(=O)N[C@H](C(=O)O)C(C)C [DOC10]
